PubChem BioAssay AID1982 (Sanford-Burnham Center for Chemical Genomics, 2009)
Activity calls are given as the source filed them. The rule behind the calls is not given here.

Tests used:
Experiment in all cases: kinase panel binding selectivity, selectivity assay, biochemical, KINOMEscan (AID 1982)
EPHB1 = settings: KINOMEscan 353-kinase binding panel, qPCR, at 10 µM, active compounds read low
[1] = biological target: Tyrosine-protein kinase ABL1 (Homo sapiens) (UniProt P00519); settings: KINOMEscan 353-kinase binding panel, qPCR, at 10 µM, active compounds read low
[2] = biological target: Serine/threonine-protein kinase D1 (Homo sapiens) (UniProt Q15139); settings: KINOMEscan 353-kinase binding panel, qPCR; PRKD1; at 10 µM; active compounds read low
[3] = biological target: cAMP-dependent protein kinase catalytic subunit alpha (Homo sapiens) (UniProt P17612); settings: KINOMEscan 353-kinase binding panel, qPCR; PKAC-alpha; at 10 µM; active compounds read low
[4] = biological target: 5'-AMP-activated protein kinase catalytic subunit alpha-1 (Homo sapiens) (UniProt Q13131); settings: KINOMEscan 353-kinase binding panel, qPCR; AMPK-alpha1; at 10 µM; active compounds read low
PKMYT1 = settings: KINOMEscan 353-kinase binding panel, qPCR, at 10 µM, active compounds read low
[5] = biological target: Mitogen-activated protein kinase kinase kinase 5 (Homo sapiens) (UniProt Q99683); settings: KINOMEscan 353-kinase binding panel, qPCR; MAP3K5; at 10 µM; active compounds read low
MST1 = settings: KINOMEscan 353-kinase binding panel, qPCR, at 10 µM, active compounds read low
RIPK4 = settings: KINOMEscan 353-kinase binding panel, qPCR, at 10 µM, active compounds read low
[6] = biological target: Tyrosine-protein kinase Srms (Homo sapiens) (UniProt Q9H3Y6); settings: KINOMEscan 353-kinase binding panel, qPCR, at 10 µM, active compounds read low
[7] = biological target: Calcium/calmodulin-dependent protein kinase type II subunit beta (Homo sapiens) (UniProt Q13554); settings: KINOMEscan 353-kinase binding panel, qPCR; CAMK2B; at 10 µM; active compounds read low
MRCKB = settings: KINOMEscan 353-kinase binding panel, qPCR, at 10 µM, active compounds read low
IRAK3 = settings: KINOMEscan 353-kinase binding panel, qPCR, at 10 µM, active compounds read low
[8] = biological target: MAP/microtubule affinity-regulating kinase 4 (Homo sapiens) (UniProt Q96L34); settings: KINOMEscan 353-kinase binding panel, qPCR; MARK4; at 10 µM; active compounds read low
[9] = biological target: cGMP-dependent protein kinase 2 (Homo sapiens) (UniProt Q13237); settings: KINOMEscan 353-kinase binding panel, qPCR; PRKG2; at 10 µM; active compounds read low
JNK1 = settings: KINOMEscan 353-kinase binding panel, qPCR, at 10 µM, active compounds read low
[10] = biological target: Aurora kinase B (Homo sapiens) (UniProt Q96GD4); settings: KINOMEscan 353-kinase binding panel, qPCR; AURKB; at 10 µM; active compounds read low
DMPK = settings: KINOMEscan 353-kinase binding panel, qPCR, at 10 µM, active compounds read low
[11] = biological target: Serine/threonine-protein kinase Chk1 (Homo sapiens) (UniProt O14757); settings: KINOMEscan 353-kinase binding panel, qPCR; CHEK1; at 10 µM; active compounds read low
[12] = biological target: cGMP-dependent protein kinase 1 (Homo sapiens) (UniProt Q13976); settings: KINOMEscan 353-kinase binding panel, qPCR; PRKG1; at 10 µM; active compounds read low
[13] = biological target: Fibroblast growth factor receptor 1 (Homo sapiens) (UniProt P11362); settings: KINOMEscan 353-kinase binding panel, qPCR; FGFR1; at 10 µM; active compounds read low
STK36 = settings: KINOMEscan 353-kinase binding panel, qPCR, at 10 µM, active compounds read low
[14] = biological target: Casein kinase II subunit alpha (Homo sapiens) (UniProt P68400); settings: KINOMEscan 353-kinase binding panel, qPCR; CSNK2A1; at 10 µM; active compounds read low
EPHA6 = settings: KINOMEscan 353-kinase binding panel, qPCR, at 10 µM, active compounds read low
EPHB4 = settings: KINOMEscan 353-kinase binding panel, qPCR, at 10 µM, active compounds read low
[15] = biological target: Calcium/calmodulin-dependent protein kinase type II subunit delta (Homo sapiens) (UniProt Q13557); settings: KINOMEscan 353-kinase binding panel, qPCR; CAMK2D; at 10 µM; active compounds read low
CSNK2A2 = settings: KINOMEscan 353-kinase binding panel, qPCR, at 10 µM, active compounds read low
[16] = biological target: Serine/threonine-protein kinase B-raf (Homo sapiens) (UniProt P15056); settings: KINOMEscan 353-kinase binding panel, qPCR, at 10 µM, active compounds read low
DCAMKL2 = settings: KINOMEscan 353-kinase binding panel, qPCR, at 10 µM, active compounds read low
RPS6KA1(Kin.Dom.2) = settings: KINOMEscan 353-kinase binding panel, qPCR, at 10 µM, active compounds read low
[17] = biological target: Dual specificity tyrosine-phosphorylation-regulated kinase 1B (Homo sapiens) (UniProt Q9Y463); settings: KINOMEscan 353-kinase binding panel, qPCR; DYRK1B; at 10 µM; active compounds read low

Measured: percent of control binding

Tyrosine-protein kinase ABL1 (Homo sapiens), sequence (P00519 whole entry, looked up): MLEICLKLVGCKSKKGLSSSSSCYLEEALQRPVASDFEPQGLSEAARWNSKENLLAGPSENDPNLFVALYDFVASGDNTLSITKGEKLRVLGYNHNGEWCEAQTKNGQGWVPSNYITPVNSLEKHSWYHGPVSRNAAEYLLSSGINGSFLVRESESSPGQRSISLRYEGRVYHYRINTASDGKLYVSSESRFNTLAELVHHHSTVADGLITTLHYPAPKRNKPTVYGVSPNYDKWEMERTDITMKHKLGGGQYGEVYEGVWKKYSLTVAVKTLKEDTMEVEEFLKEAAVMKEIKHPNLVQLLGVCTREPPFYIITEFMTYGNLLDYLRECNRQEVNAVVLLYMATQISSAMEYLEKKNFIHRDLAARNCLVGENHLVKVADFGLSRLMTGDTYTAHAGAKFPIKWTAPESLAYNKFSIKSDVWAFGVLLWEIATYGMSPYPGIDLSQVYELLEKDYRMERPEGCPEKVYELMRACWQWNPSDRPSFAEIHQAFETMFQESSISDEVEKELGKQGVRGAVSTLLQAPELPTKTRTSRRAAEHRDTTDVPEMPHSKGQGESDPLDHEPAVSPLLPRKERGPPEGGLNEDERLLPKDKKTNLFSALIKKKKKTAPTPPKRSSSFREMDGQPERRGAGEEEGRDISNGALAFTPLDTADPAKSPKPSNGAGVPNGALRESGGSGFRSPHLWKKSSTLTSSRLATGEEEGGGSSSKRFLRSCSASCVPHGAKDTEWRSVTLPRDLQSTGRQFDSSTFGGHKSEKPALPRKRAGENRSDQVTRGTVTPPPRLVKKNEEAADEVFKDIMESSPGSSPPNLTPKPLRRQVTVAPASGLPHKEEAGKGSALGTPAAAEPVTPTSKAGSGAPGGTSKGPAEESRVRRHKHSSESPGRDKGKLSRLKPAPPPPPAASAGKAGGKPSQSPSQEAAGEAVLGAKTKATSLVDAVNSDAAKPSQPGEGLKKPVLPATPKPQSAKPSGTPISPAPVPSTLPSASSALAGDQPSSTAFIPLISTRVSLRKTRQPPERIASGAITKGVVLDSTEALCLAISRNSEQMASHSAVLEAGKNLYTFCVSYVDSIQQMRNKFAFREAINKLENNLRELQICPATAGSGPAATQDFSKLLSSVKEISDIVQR
Serine/threonine-protein kinase B-raf (Homo sapiens), sequence (P15056 whole entry, looked up): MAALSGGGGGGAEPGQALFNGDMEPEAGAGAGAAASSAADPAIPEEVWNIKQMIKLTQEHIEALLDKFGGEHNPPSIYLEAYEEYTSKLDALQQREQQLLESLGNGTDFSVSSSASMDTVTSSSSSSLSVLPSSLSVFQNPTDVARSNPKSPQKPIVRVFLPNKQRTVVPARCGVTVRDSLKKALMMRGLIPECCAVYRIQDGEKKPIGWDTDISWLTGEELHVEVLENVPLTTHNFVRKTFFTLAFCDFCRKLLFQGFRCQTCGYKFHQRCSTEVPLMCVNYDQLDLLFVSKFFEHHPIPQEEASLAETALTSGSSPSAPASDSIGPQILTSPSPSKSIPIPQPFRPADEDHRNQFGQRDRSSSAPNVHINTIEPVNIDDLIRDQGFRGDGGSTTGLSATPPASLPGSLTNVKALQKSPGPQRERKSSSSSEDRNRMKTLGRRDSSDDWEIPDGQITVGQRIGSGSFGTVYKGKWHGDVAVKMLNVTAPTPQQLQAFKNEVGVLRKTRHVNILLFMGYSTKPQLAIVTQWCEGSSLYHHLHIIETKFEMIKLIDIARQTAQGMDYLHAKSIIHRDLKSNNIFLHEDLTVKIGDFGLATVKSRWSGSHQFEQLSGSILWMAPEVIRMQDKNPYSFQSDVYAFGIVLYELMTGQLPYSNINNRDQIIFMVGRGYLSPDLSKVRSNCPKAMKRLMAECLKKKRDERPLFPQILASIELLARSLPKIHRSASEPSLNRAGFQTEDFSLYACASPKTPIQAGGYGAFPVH
Tyrosine-protein kinase Srms (Homo sapiens), sequence (Q9H3Y6 whole entry, looked up): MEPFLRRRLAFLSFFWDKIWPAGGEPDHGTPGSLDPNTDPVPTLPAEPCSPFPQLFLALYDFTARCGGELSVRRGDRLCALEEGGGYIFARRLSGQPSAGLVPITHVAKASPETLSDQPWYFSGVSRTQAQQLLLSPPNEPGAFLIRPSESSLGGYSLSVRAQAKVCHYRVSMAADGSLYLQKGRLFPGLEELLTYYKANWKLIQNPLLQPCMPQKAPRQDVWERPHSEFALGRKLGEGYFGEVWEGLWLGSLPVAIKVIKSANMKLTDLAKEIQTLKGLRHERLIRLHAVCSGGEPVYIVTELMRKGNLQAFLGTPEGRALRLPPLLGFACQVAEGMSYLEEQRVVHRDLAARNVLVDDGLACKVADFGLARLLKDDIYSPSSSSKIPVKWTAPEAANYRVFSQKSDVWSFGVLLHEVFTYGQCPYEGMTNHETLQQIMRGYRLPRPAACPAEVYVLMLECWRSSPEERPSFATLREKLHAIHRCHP
Calcium/calmodulin-dependent protein kinase type II subunit beta (Homo sapiens), sequence (Q13554 whole entry, looked up): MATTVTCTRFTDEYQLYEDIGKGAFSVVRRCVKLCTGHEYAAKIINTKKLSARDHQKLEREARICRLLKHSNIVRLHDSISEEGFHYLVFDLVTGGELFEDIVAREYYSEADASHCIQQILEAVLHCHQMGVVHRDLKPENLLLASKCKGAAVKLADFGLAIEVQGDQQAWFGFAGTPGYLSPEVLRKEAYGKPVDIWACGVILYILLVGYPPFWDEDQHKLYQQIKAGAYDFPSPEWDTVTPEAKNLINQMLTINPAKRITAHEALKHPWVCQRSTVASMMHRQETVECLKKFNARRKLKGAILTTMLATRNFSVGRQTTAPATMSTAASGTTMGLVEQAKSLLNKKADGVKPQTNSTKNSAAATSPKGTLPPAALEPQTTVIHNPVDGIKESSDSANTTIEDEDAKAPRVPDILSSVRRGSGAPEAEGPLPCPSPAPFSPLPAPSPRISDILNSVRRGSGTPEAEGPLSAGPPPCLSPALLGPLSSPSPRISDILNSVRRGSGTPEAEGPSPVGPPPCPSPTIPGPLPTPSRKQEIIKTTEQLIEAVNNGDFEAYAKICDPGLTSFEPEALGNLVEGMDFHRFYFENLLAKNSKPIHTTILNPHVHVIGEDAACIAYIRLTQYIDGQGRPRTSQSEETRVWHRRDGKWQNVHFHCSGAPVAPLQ
Calcium/calmodulin-dependent protein kinase type II subunit delta (Homo sapiens), sequence (Q13557 whole entry, looked up): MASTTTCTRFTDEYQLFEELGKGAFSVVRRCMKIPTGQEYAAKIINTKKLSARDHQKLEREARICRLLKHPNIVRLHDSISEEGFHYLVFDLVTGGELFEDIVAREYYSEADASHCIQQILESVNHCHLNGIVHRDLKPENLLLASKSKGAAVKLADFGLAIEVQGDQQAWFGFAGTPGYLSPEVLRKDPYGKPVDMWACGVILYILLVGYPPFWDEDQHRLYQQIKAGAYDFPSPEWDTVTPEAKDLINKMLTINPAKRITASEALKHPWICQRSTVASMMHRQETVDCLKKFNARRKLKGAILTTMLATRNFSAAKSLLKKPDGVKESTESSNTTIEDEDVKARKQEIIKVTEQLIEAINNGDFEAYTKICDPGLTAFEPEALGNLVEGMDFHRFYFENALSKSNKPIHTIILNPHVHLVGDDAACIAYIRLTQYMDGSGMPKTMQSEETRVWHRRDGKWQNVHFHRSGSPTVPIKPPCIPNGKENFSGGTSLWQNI
cGMP-dependent protein kinase 1 (Homo sapiens), sequence (Q13976 whole entry, looked up): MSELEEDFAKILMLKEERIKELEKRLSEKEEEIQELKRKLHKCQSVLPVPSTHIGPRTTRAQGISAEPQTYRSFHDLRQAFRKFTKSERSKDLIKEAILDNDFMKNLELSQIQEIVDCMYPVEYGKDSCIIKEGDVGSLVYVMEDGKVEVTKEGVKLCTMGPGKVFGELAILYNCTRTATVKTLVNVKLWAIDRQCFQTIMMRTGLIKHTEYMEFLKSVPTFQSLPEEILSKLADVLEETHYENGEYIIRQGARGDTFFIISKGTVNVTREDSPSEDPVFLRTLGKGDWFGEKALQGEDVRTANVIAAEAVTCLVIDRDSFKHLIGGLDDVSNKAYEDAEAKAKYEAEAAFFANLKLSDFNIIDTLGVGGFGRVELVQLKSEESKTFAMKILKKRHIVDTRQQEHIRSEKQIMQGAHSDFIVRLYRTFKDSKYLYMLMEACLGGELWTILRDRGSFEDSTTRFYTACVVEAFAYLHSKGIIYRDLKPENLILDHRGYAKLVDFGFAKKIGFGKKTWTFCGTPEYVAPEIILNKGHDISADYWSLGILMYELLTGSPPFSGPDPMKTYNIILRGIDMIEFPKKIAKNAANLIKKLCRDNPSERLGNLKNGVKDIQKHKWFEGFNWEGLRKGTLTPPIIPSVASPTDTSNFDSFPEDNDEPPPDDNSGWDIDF
MAP/microtubule affinity-regulating kinase 4 (Homo sapiens), sequence (Q96L34 whole entry, looked up): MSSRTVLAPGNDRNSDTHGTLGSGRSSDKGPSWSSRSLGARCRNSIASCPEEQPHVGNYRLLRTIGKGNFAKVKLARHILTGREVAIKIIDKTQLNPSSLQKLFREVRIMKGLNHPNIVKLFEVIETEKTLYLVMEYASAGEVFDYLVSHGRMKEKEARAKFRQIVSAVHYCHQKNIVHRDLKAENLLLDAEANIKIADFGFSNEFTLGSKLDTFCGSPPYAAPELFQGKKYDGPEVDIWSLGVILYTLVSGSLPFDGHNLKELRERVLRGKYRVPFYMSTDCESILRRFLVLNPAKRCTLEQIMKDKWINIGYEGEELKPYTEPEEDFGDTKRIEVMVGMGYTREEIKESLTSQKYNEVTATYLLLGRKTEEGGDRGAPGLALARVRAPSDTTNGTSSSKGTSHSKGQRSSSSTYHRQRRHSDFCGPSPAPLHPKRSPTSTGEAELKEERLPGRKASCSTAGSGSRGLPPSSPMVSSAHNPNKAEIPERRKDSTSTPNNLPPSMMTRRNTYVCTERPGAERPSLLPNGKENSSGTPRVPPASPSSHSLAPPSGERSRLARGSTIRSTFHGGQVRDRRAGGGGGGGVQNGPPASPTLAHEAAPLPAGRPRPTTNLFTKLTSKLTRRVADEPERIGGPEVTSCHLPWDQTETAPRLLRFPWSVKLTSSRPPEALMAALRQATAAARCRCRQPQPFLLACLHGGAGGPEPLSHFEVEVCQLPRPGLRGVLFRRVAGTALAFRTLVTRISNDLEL

Cc1cc2nc(NCCCO)n(CC(=O)c3cc(C(C)(C)C)c(O)c(C(C)(C)C)c3)c2cc1C
inactive: EPHB1 95% | [1] 100% | [1]; ABL1(E255K) 94% | [1]; ABL1(F317I) 100% | [1]; ABL1(F317L) 92% | [1]; ABL1(H396P) 98% | [1]; ABL1(M351T) 100% | [1]; ABL1(Q252H) 100% | [1]; ABL1(T315I) 86% | [1]; ABL1(Y253F) 100% | [2] 100% | [3] 94% | [4] 94% | PKMYT1 100% | [5] 100% | MST1 90% | RIPK4 89% | [6] 100% | [7] 100% | MRCKB 100% | IRAK3 100% | [8] 98% | [9] 100% | JNK1 100% | [10] 100% | DMPK 93% | [11] 100% | [12] 100% | [13] 100% | STK36 100% | [14] 81% | EPHA6 93% | EPHB4 98% | [15] 89% | CSNK2A2 98% | [16]; BRAF(V600E) 70% | [16]; BRAF 88% | DCAMKL2 89% | RPS6KA1(Kin.Dom.2) 93% | [17] 91%
